US20240425523A1, “Compounds for the Degradation of EGFR Kinase” (Beigene Switzerland GMBH, priority 2023, published 2024)

What was measured:
Format in all cases: cell-based
[1] = target: T1, EGFR-L858R/C797S (H1975-clone #8 cells) (Homo sapiens, UniProt P00533, C797S/L858R); test: Cell degradation of EGFR, HTRF assay, H1975-clone#8 (L858R/C797S) cells; settings: 16 h treatment; for DC50: EGFR degradation
T1 construct: expressed in transfected cells; host or cells: H1975 (endogenous EGFR knocked out, clone #8)
Description: (§1) The EGFR over-expressed cells then underwent knockout, in which the EGFR targeting sgRNA was designed to only target the endogenous EGFR copies and preserve the exogenous EGFR copies. Followed by the knockout, the edited H1975 cells were seeded in 96 well plates at the concentration of 1 cell/cell, cultured for about 2 weeks to allow single clones formation. The formed clones were screened by DNA sequencing and whole exon sequencing analysis for the desired edition.
(§2) H1975-#8 and BaF3-L858R cells are treated with compounds diluted in 0.1% DMSO cell culture medium on day 2, incubate for 16 h, 37° C., 5% CO2. the final concentration of compounds in all assay is start with 10 uM, 5-fold dilution, total 8 doses were included.
(§3) After 16 h treatment, for H1975-#8 cells, add 100 ul HTRF 1× lysis buffer to each well; for BaF3-L858R cells, add 20 μl 4× lysis buffer to each well; seal the plate and incubate 1 hour at room temperature on a plate shaker; Once the cells are lysed, 16 μL of cell lysate are transferred to a PE 384-well HTRF detection plate; 4 μL of pre-mixed HTRF antibodies are added to each well; Cover the plate with a plate sealer, spin 1000 rpm for 1 min, Incubate overnight at room temperature; Read on BMG PheraStar with HTRF protocol (337 nm-665 nm-620 nm).
(§4) High control=Cell group with added DMSO and without compound, indicating microplate readings without EGFR degradation;
(§5) Dmax is the maximum percentage of inhibition (degradation).
(§6) The IC50 (DC50) value of a compound can be obtained by fitting the following equation
(§7) Y=Bottom+(TOP−Bottom)/(1+((IC50/X)^hillslope))
(§8) Wherein, X and Y are known values, and IC50, Hillslope, Top and Bottom are the parameters obtained by fitting with software. […] The experimental data were fitted by calculating and analyzing with Dotmatics data analysis software.

[2] = target: p-EGFR Del19/C797S (H1975-clone #23 cells) (Homo sapiens, UniProt P00533); test: Cell p-EGFR inhibition assay, HTRF, H1975-clone#23 (DEL19/C797S) cells; settings: 16 h treatment
Description: as §1, with “cell/well,” for “cell/cell,”
(§9) H1975-#23 and BaF3-L858R cells are treated with compounds diluted in 0.1% DMSO cell culture medium on day 2, incubate for 16 h, 37° C., 5% CO2. the final concentration of compounds in all assay is start with 10 uM, 5-fold dilution, total 8 doses were included.
as §3, with “for H1975-#23” for “for H1975-#8”, “add 50” for “add 100”
(§10) High control=Cell group with added DMSO and without compound, indicating microplate readings without p-EGFR inhibited.
(§11) Imax is the maximum percentage of inhibition.
(§12) The IC50 value of a compound can be obtained by fitting the following equation.
as §8

[3] = target: T2, p-EGFR L858R (BaF3-L858R cells) (Homo sapiens, UniProt P00533, L858R); test: Cell p-EGFR inhibition assay, HTRF, BaF3-L858R cells; settings: 16 h treatment
T2 construct: host or cells: BaF3
Description: (§13) BaF3-L858R (abbv. L858R) cell were purchased from Kangyuan Bochuang Biotechnology (Beijing) Co., Ltd.
as §9
as §3, with “for H1975-#23” for “for H1975-#8”, “add 50” for “add 100”
as §10, §11, §12, §8

[4] = target: T3, EGFR L858R (BaF3-L858R cells) (Homo sapiens, UniProt P00533, L858R); test: Cell degradation of EGFR, HTRF assay, BaF3-L858R cells; settings: 16 h treatment; for DC50: EGFR degradation
T3 construct: host or cells: BaF3
Description: as §13, §2, §3, §4, §5, §6, §7, §8

[5] = maximum percentage of degradation
[6] = maximum percentage of pEGFR inhibition

3-(5-(4-((S)-4-((7^1R,7^3S,E)-1^1,2^6-dimethyl-3-oxo-5^2,5^3-dihydro-1^1H,5^1H-9-oxa-4-aza-5(2,1)-benzo[d]imidazola-2(2,4)-pyridina-1(4,5)-pyrazola-7(1,3)-cyclopentanacyclononaphane-5^6-yl)-2-methylpiperazin-1-yl)piperidin-1-yl)-6-methylpyridin-2-yl)piperidine-2,6-dione [Example 214]
DC50 [1]: 0.61 nM | Dmax (%) [1, 5]: 77.32% | Imax (%) [2, 6]: 100.03% | IC50 ([2]; pEGFR inhibition): 0.604 nM | Imax (%) [3, 6]: 100.54% | IC50 ([3]; pEGFR inhibition): 3.32 nM | DC50 [4]: 0.65 nM | Dmax (%) [4, 5]: 82.61%

Cc1cc2cc(n1)-c1cnn(C)c1OC[C@H]1CC[C@H](C1)CN1/C(=N/C2=O)Nc2ccc(N3CCN([C@@H]4CCN(c5c(C)cc(C6CCC(=O)NC6=O)nc5C)C[C@@H]4F)CC3)cc21 (stereo partly drawn) [Example 13, 3-(5-((3S,4R)-4-(4-((7^1R,7^3S,E)-1^1,2^6-dimethyl-3-oxo-5^2,5^3-dihydro-1^1H,5^1H-9-oxa-4-aza-5(2,1)-benzo[d]imidazola-2(2,4)-pyridina-1(4,5)-pyrazola-7(1,3)-cyclopentanacyclononaphane-5^6-yl)piperazin-1-yl)-3-fluoropiperidin-1-yl)-4,6-dimethylpyridin-2-yl)piperidine-2,6-dione]
DC50 [1]: 1.4 nM | Dmax [1, 5]: 65.5% | DC50 [4]: 0.307 nM | Dmax [4, 5]: 91.5%

Cc1cc2cc(n1)-c1cnn(C)c1OC[C@H]1CC[C@H](C1)CN1/C(=N/C2=O)Nc2ccc(N3CCN([C@@H]4CCN(c5cc(F)c(C6CCC(=O)NC6=O)nc5C)C[C@@H]4F)CC3)cc21 (stereo partly drawn) [Example 14, 3-(5-((3S,4R)-4-(4-((7^1R,7^3S,E)-1^1,2^6-dimethyl-3-oxo-5^2,5^3-dihydro-1^1H,5^1H-9-oxa-4-aza-5(2,1)-benzo[d]imidazola-2(2,4)-pyridina-1(4,5)-pyrazola-7(1,3)-cyclopentanacyclononaphane-5^6-yl)piperazin-1-yl)-3-fluoropiperidin-1-yl)-3-fluoro-6-methylpyridin-2-yl)piperidine-2,6-dione]
DC50 [1]: 0.616 nM | Dmax [1, 5]: 90.9% | DC50 [4]: 0.552 nM | Dmax [4, 5]: 84%

Cc1cc2cc(n1)-c1cnn(C)c1OC[C@H]1CC[C@H](C1)CN1/C(=N/C2=O)Nc2ccc(N3CCN([C@H]4CCN(c5ccc(C6CCC(=O)NC6=O)nc5C)C[C@H]4F)CC3)cc21 (stereo partly drawn) [Example 15, 3-(5-((3R,4S)-4-(4-((7^1R,7^3S,E)-1^1,2^6-dimethyl-3-oxo-5^2,5^3-dihydro-1^1H,5^1H-9-oxa-4-aza-5(2,1)-benzo[d]imidazola-2(2,4)-pyridina-1(4,5)-pyrazola-7(1,3)-cyclopentanacyclononaphane-5^6-yl)piperazin-1-yl)-3-fluoropiperidin-1-yl)-6-methylpyridin-2-yl)piperidine-2,6-dione]
DC50 [1]: 11.1 nM | Dmax [1, 5]: 85.2% | DC50 [4]: 7.6 nM | Dmax [4, 5]: 94.2%

Cc1cc2cc(n1)-c1cnn(C)c1OC[C@H]1CC[C@H](C1)CN1/C(=N/C2=O)Nc2ccc(N3CCN([C@@H]4CCN(c5cnc(C6CCC(=O)NC6=O)cc5C)C[C@@H]4F)CC3)cc21 (stereo partly drawn) [Example 21, 3-(5-((3S,4R)-4-(4-((7^1R,7^3S,E)-1^1,2^6-dimethyl-3-oxo-5^2,5^3-dihydro-1^1H,5^1H-9-oxa-4-aza-5(2,1)-benzo[d]imidazola-2(2,4)-pyridina-1(4,5)-pyrazola-7(1,3)-cyclopentanacyclononaphane-5^6-yl)piperazin-1-yl)-3-fluoropiperidin-1-yl)-4-methylpyridin-2-yl)piperidine-2,6-dione]
DC50 [1]: 0.782 nM | Dmax [1, 5]: 83.2% | DC50 [4]: 2.99 nM | Dmax [4, 5]: 99%

Cc1cc2cc(n1)-c1cnn(C)c1OC[C@H]1CC[C@H](C1)CN1/C(=N/C2=O)Nc2ccc(N3CCN(CC4CCN(c5ccc(C6CCC(=O)NC6=O)nc5C)CC4)CC3)cc21 (some centres unmarked) [Example 23, 3-(5-(4-((4-((7^1R,7^3S,E)-1^1,2^6-dimethyl-3-oxo-5^2,5^3-dihydro-1^1H,5^1H-9-oxa-4-aza-5(2,1)-benzo[d]imidazola-2(2,4)-pyridina-1(4,5)-pyrazola-7(1,3)-cyclopentanacyclononaphane-5^6-yl)piperazin-1-yl)methyl)piperidin-1-yl)-6-methylpyridin-2-yl)piperidine-2,6-dione]
DC50 [1]: 0.608 nM | Dmax [1, 5]: 55% | DC50 [4]: 12.8 nM | Dmax [4, 5]: 86%

Cc1cc2cc(n1)-c1cnn(C)c1OC[C@H]1CC[C@H](C1)CN1/C(=N/C2=O)Nc2ccc(N3CCN([C@H]4CCN(c5cc(F)c(C6CCC(=O)NC6=O)nc5C)C[C@H]4F)CC3)cc21 (stereo partly drawn) [Example 27, 3-(5-((3R,4S)-4-(4-((7^1R,7^3S,E)-1^1,2^6-dimethyl-3-oxo-5^2,5^3-dihydro-1^1H,5^1H-9-oxa-4-aza-5(2,1)-benzo[d]imidazola-2(2,4)-pyridina-1(4,5)-pyrazola-7(1,3)-cyclopentanacyclononaphane-5^6-yl)piperazin-1-yl)-3-fluoropiperidin-1-yl)-3-fluoro-6-methylpyridin-2-yl)piperidine-2,6-dione]
DC50 [1]: 3.19 nM | Dmax [1, 5]: 90.2% | DC50 [4]: 1.75 nM | Dmax [4, 5]: 91.1%

Cc1cc2cc(n1)-c1cnn(CCO)c1OC[C@H]1CCC(C1)CN1/C(=N/C2=O)Nc2ccc(N3CCC(N4CCC(Nc5cc(F)c([C@H]6CCC(=O)NC6=O)c(F)c5)CC4)CC3)cc21 [Example 129, (R)-3-(2,6-difluoro-4-((1′-((7^1R,7^3S,E)-1^1-(2-hydroxyethyl)-2^6-methyl-3-oxo-5^2,5^3-dihydro-1^1H,5^1H-9-oxa-4-aza-5(2,1)-benzo[d]imidazola-2(2,4)-pyridina-1(4,5)-pyrazola-7(1,3)-cyclopentanacyclononaphane-5^6-yl)-[1,4′-bipiperidin]-4-yl)amino)phenyl)piperidine-2,6-dione]
DC50 [1]: 1.45 nM | Dmax [1, 5]: 69.3% | DC50 [4]: 16.2 nM | Dmax [4, 5]: 71.9%

COC[C@@H]1CN(c2ccc3c(c2)N2C[C@@H]4CC[C@H](COc5c(c(C)nn5C)-c5cc(cc(C)n5)C(=O)/N=C/2N3)C4)CCN1C1CCN(c2c(C)cc(C3CCC(=O)NC3=O)nc2C)CC1 (stereo partly drawn) [Example 147, 3-(5-(4-((S)-2-(methoxymethyl)-4-((7^1R,7^3S,E)-1^1,1^3,2^6-trimethyl-3-oxo-5^2,5^3-dihydro-1^1H,5^1H-9-oxa-4-aza-5(2,1)-benzo[d]imidazola-2(2,4)-pyridina-1(4,5)-pyrazola-7(1,3)-cyclopentanacyclononaphane-5^6-yl)piperazin-1-yl)piperidin-1-yl)-4,6-dimethylpyridin-2-yl)piperidine-2,6-dione]
DC50 [1]: 2.02 nM | Dmax [1, 5]: 63.2% | DC50 [4]: 1.04 nM | Dmax [4, 5]: 87.6%

COC[C@H]1CN(c2ccc3c(c2)N2C[C@@H]4CC[C@H](COc5c(c(C)nn5C)-c5cc(cc(C)n5)C(=O)/N=C/2N3)C4)CCN1C1CCN(c2c(C)cc(NC3CCC(=O)NC3=O)nc2C)CC1 (stereo partly drawn) [Example 159, 3-((5-(4-((R)-2-(methoxymethyl)-4-((7^1R,7^3S,E)-1^1,1^3,2^6-trimethyl-3-oxo-5^2,5^3-dihydro-1^1H,5^1H-9-oxa-4-aza-5(2,1)-benzo[d]imidazola-2(2,4)-pyridina-1(4,5)-pyrazola-7(1,3)-cyclopentanacyclononaphane-5^6-yl)piperazin-1-yl)piperidin-1-yl)-4,6-dimethylpyridin-2-yl)amino)piperidine-2,6-dione]
DC50 [1]: 3.75 nM | Dmax [1, 5]: 81.3% | DC50 [4]: 9.56 nM | Dmax [4, 5]: 77.5%
